Experimental data as given in patent publication US10828350B1, “Topical and orally administered protease inhibitors and bacterial vectors for the treatment of disorders and methods of treatment” (priority 2014, dated 2020).

Test system: trypsin
Assay: Petri plate assay detecting zones of protease protection by protease inhibitors or bacterial strains after flooding with trypsin
Format: biochemical
Conditions: for relative size of zone of inhibition (diffusion zone): casein plates, to a lesser degree gelatin plates, compared among leupeptin, aprotinin and α-2-macroglobulin
From the text: Because the protocol is destructive to the plate assayed, a duplicate or replica plate is generated and retained for identification and further analysis of the strains using methods known to those skilled in the arts. The initial step is the exposure of the protease detection plate to a protease inhibitor or bacterial growth. Either commercially available protease inhibitor peptides or growth of bacterial strains on the protease detection plates can be detected. […] The bacterial strains Photorabdus (Xenorhabdus) luminescens strain Hm primary and secondary forms where the secondary and not the primary form is known to secrete a protease inhibitor and the other strains are negative controls (Wee et al. 2000, A new broad-spectrum protease inhibitor from the entomopathogenic bacterium Photorhabdus luminescens. Microbiology 146: 3141-3147), Citrobacter freundii (ATCC #33128), Staphylococcus aureus, S. epidermidis and Enterococcusfaecalis are allowed to grow two days at 30° C. in air.
The base media can be any microbiological media designed to facilitate the growth of cultivable microorganism; different media can be used to favor different strains as appropriate (Kreig, 1981, Chapter 8, Enrichment and Isolation, p. 112-142 in Manual of Methods for General Bacteriology, Gerhardt et al., eds, American Society for Microbiology, Washington, D.C.). Variations on the type of protease being targeted, the protease substrate and cognate inhibitors are shown in Table 1 and used as a guide in the modification of media. A casein base media based on that of Vijayaraghavan and Vincent (2013, A simple method for the detection of protease activity on agar plates using bromochresol green dye, J. Biochem. Tech. 4: 628-630), which contained 5 grams of peptone, 1.5 grams of yeast extract, 1.5 grams of sodium chloride per liter with, except that the casein 0.5% is used (instead of 1.0%) and dissolved as described by Montville (1983, Dual-substrate plate diffusion assay for proteases, Appl Environ Microbiol 45: 200-204) using 0.02 N NaOH. When bromochresol green (BCG) is added directly to the media, 0.0015% is used. BCG preincorporated into the media as well as post incubation addition of a BCG dye reagent containing 0.028% BCG dissolved in 0.56% (w/v) succinic acid, 0.1% (w/v) NaOH (Vijayaraghavan and Vincent; 2013) with 0.6% Brij-35 and then acidified to pH 4.2 can also be used following exposure to a protease inhibitor or bacterial growth and subsequent exposure to a protease. After staining and then destaining in water the by completely removing the agar from the lower plastic, the plates are observed for the presence and absence of protein. Ponseau S staining by flooding the plate with 5 ml of the stain containing 0.1% Ponseau S (PS; Sigma, St. Louis, Mo.) and 5% acetic acid in water for 1-2 hrs and then marking the agar with a 23 ga syringe needle dipped in India ink at a corresponding register marked on the plastic petri plate, removing the agar from the plate and destaining overnight in water before observing them and is highly sensitive.
A gelatin based media (Medina and Baresi 2007, Rapid identification of gelatin and casein hydrolysis using TCA, J Microbiol Meth 69: 391-393) which uses 40 grams per liter of tryptic soy agar powder without glucose (Becton Dickinson, Sparks, Md.) modified to contain 8 g of gelatin (instead of 16 g) per liter may be preferable for certain organisms depending upon their growth requirements and is used as is appropriate. Approximately 5 ml of 20% trichloroacetic acid (TCA; Thermo Fisher, Waltham, Mass.) was used for protein precipitation per petri plate. This media can also be combined with preincorporated BCG, or post-incubation BCG dye reagent or Ponseau S, each as described above for the casein plates. […]

[1] = BCG-containing plates further stained with PS, 0.625 mg/ml trypsin for casein, 0.0625 mg/ml for gelatin (FIG. 2B)
[2] = casein plates with preincorporated BCG, before PS staining (FIG. 2A)

Molecule | visualization of zone of protease protection [1] | visualization of zone of protease protection [2] | relative size of zone of inhibition (diffusion zone) | diffusion distance of inhibitor on plate (casein BCG plate, PS stained (FIGS. 5A and 5B))
CC(C)C[C@H](NC(=O)[C@@H](O)[C@H](N)Cc1ccccc1)C(=O)O [bestatin] | no staining |  |  | 
aprotinin [Aprotonin] | able to visualize | faintly visualize |  | 
CC(=O)N[C@@H](CC(C)C)C(=O)N[C@@H](CC(C)C)C(=O)N[C@H](C=O)CCCNC(=N)N [Leupeptin, leupeptin] | able to visualize |  | notably larger | 
α-2-macroglobulin (protein, UniProt P01023 24-1474, looked up) Alpha-2-macroglobulin: SVSGKPQYMVLVPSLLHTETTEKGCVLLSYLNETVTVSASLESVRGNRSLFTDLEAENDVLHCVAFAVPKSSSNEEVMFLTVQVKGPTQEFKKRTTVMVKNEDSLVFVQTDKSIYKPGQTVKFRVVSMDENFHPLNELIPLVYIQDPKGNRIAQWQSFQLEGGLKQFSFPLSSEPFQGSYKVVVQKKSGGRTEHPFTVEEFVLPKFEVQVTVPKIITILEEEMNVSVCGLYTYGKPVPGHVTVSICRKYSDASDCHGEDSQAFCEKFSGQLNSHGCFYQQVKTKVFQLKRKEYEMKLHTEAQIQEEGTVVELTGRQSSEITRTITKLSFVKVDSHFRQGIPFFGQVRLVDGKGVPIPNKVIFIRGNEANYYSNATTDEHGLVQFSINTTNVMGTSLTVRVNYKDRSPCYGYQWVSEEHEEAHHTAYLVFSPSKSFVHLEPMSHELPCGHTQTVQAHYILNGGTLLGLKKLSFYYLIMAKGGIVRTGTHGLLVKQEDMKGHFSISIPVKSDIAPVARLLIYAVLPTGDVIGDSAKYDVENCLANKVDLSFSPSQSLPASHAHLRVTAAPQSVCALRAVDQSVLLMKPDAELSASSVYNLLPEKDLTGFPGPLNDQDNEDCINRHNVYINGITYTPVSSTNEKDMYSFLEDMGLKAFTNSKIRKPKMCPQLQQYEMHGPEGLRVGFYESDVMGRGHARLVHVEEPHTETVRKYFPETWIWDLVVVNSAGVAEVGVTVPDTITEWKAGAFCLSEDAGLGISSTASLRAFQPFFVELTMPYSVIRGEAFTLKATVLNYLPKCIRVSVQLEASPAFLAVPVEKEQAPHCICANGRQTVSWAVTPKSLGNVNFTVSAEALESQELCGTEVPSVPEHGRKDTVIKPLLVEPEGLEKETTFNSLLCPSGGEVSEELSLKLPPNVVEESARASVSVLGDILGSAMQNTQNLLQMPYGCGEQNMVLFAPNIYVLDYLNETQQLTPEIKSKAIGYLNTGYQRQLNYKHYDGSYSTFGERYGRNQGNTWLTAFVLKTFAQARAYIFIDEAHITQALIWLSQRQKDNGCFRSSGSLLNNAIKGGVEDEVTLSAYITIALLEIPLTVTHPVVRNALFCLESAWKTAQEGDHGSHVYTKALLAYAFALAGNQDKRKEVLKSLNEEAVKKDNSVHWERPQKPKAPVGHFYEPQAPSAEVEMTSYVLLAYLTAQPAPTSEDLTSATNIVKWITKQQNAQGGFSSTQDTVVALHALSKYGAATFTRTGKAAQVTIQSSGTFSSKFQVDNNNRLLLQQVSLPELPGEYSMKVTGEGCVYLQTSLKYNILPEKEEFPFALGVQTLPQTCDEPKAHTSFQISLSVSYTGSRSASNMAIVDVKMVSGFIPLKPTVKMLERSNHVSRTEVSSNHVLIYLDKVSNQTLSLFFTVLQDVPVRDLKPAIVKVYDYYETDEFAIAEYNAPCSKDLGNA | able to visualize | faintly visualize | smallest diffusion zone | diffused only a short distance
